According to US10533034B2, “Human iNKT cell activation using glycolipids” (ACADEMIA SINICA, priority 2014, dated 2020):

How the values were obtained:
C1-pulsed splenocytes = test: CD1d dimer staining of in vivo C1-pulsed splenocytes; assay type: binding, B6 WT mice; details: CD3+/CD45R− gated; 3 days after C1 1 μg/mouse
Protocol: B6 WT splenocytes (n=3) were harvested 3 days after injection with C1 (1 μg/mouse) and stained with CD3, CD45R and the indicated dimer complex conjugated with RPE for 1 hr at 4 degrees Celsius. (11A) CD3+/CD45R− cells were gated to analyze the dimer staining. (11B) unloaded dimer was used as the control. (11C) mCD1d dimer loaded with 7DW8-5-Glc stained 17.1±0.8% of C1-pulsed splenocytes. (11D) mCD1d dimer loaded with 7DW8-5 stained 36.2±5.0% of C1-pulsed splenocytes.

Jα18 KO mice = test: Murine serum cytokine/chemokine secretion after i.v. glycolipid, Jα18 knockout mice; assay type: in vivo; details: 1 μg/mouse; sera 2 and 18 hr
Protocol: (§1) B6 wild type and Jα18 knockout mice were i.v. injected with the indicated glycolipids (1 μg/mouse) or vehicle. Sera collected at 2 h and 18 h post-injection were analyzed for cytokines like IL-2 (7A), IL-6 (7B), GM-CSF (7C) and TNFα (7D) as well as chemokines such as IP-10 (7E), MIG (7F), KC (7G) and MCP-1 (7H). Only MIG peaked at 18 hr post-injection, while the others peaked at 2 hr post-injection.
(§2) All the glycolipids were dissolved in 100% DMSO at a concentration of 1-2 mg/ml. For in vivo experiments, all compounds were diluted to 10 μg/ml in saline just before injection of 100 μl diluted glycolipid or 100 μl 1% DMSO into mice. Pathogen-free C57BL/6 female mice aged 6-12 weeks were obtained from the National Laboratory Animal Center (Taipei, Taiwan). Jα18 knockout (KO) B6 mice were the gifts from Dr. Masaru Taniguchi (RIKEN Research Center for Allergy and Immunology, Yokohama, Japan). All the mice were maintained in pathogen free vivarium of Institute of Cellular and Organismic Biology, Academia Sinica (Taipei, Taiwan).
(§3) B6 WT or Jα18 KO mice were intravenously injected with vehicle or glycolipids at 0.1 or 1 μg/mouse. Serum was collected at 2 and 18 h after injection for measurement of cytokines/chemokines by Beadlyte® Mouse Cytokine kit (Millipore, N.Y.) and read by a Luminex® 200™ system (Luminex, Austin, Tex.).

mCD1d dimer = test: Binding strength of the binary complex between mCD1d and glycolipid (L363 antibody ELISA); design: species or system mouse
Protocol: (10A, 10B) Different concentrations of mCD1d-glycolipid complexes coated on the ELISA plate were incubated with the saturated amount of L363 antibody conjugated with biotin, followed by streptavidin-HRP detection and ELISA measurement. (10A) The relationship between OD values reflecting L363 antibody binding and the concentration of CD1ddi-glycolipids complex was plotted. (10B) The dissociation constant (KD) between L363 antibody and the indicated mCD1d-glycolipid complex was calculated as described in Materials and methods. (10C) The relationship between OD values reflecting L363 antibody binding and the concentration of glycolipids was plotted. (10D) KD values of the binary complex were calculated from the linear regression of the Scatchard transformation of the L363 antibody binding curve (10C).
Different concentrations of mCD1d^di-glycolipid complexes coated on the ELISA plate were incubated with the saturated amounts of L363 antibody (BioLegend) conjugated with biotin, followed by streptavidin-HRP detection and ELISA measurement. The KD between L363 antibody and the indicated mCD1d^di-glycolipid complex was calculated from the linear regression of the Scatchard transformation of the L363 antibody binding curve using GraphPad Prism software. […] Next, the KD of the binary complex was determined as follows. […]

B6 wild type mice = test: Murine serum cytokine/chemokine secretion after i.v. glycolipid, wild type mice; assay type: in vivo, mouse
Protocol: B6 wild type mice were i.v. injected with 7DW8-5-Glc at 0.1 or 1 μg/mouse. Sera collected at 2 h and 18 h post-injection were analyzed for chemokine secretions such as IP-10 (6A), KC (6B), MCP-1 (6C), and MIP-1α (6D). These chemokines peaked at 2 hr post-injection.
as §1, §2, §3
Previously, 0.1 μg/mouse of 7DW8-5 was sufficient for immune stimulation,^19 but higher dosage (1 μg/mouse) was required for the glucose analog 7DW8-5-Glc to induce immune responses (FIG. 6). Thus, the biological activities of newly synthesized glycolipids were tested in B6 mice 2 and 18 hr after i.v. injection of glycolipids at 1 μg/mouse. […] As compared to GSLs with αGlc, GSLs with αGal induced higher levels of cytokines and chemokines, including IFN-γ, IL-2, IL-4, IL-6, GM-CSF, TNFα and IP-10.

Row | Structure (SMILES) | percentage of C1-pulsed splenocytes stained by mCD1d dimer loaded with glycolipid (C1-pulsed splenocytes) [%] | induction of cytokines in Jα18 KO mice (Jα18 KO mice) | binding avidity to mCD1d dimer, fold greater than αGalCer (mCD1d dimer) [fold] | levels of KC, MCP-1, IP-10 and MIG chemokines induced (B6 wild type mice; 1 μg/mouse i.v., 2 and 18 hr) | levels of Th1 and Th2 cytokines induced (B6 wild type mice; 1 μg/mouse i.v., 2 and 18 hr) | dosage required to induce immune responses (B6 wild type mice; i.v., sera 2 h and 18 h) [μg/mouse] | secretion of chemokines KC, MCP-1, IP-10 and MIG in Jα18 KO mice (Jα18 KO mice) | induction of serum cytokines/chemokines (B6 wild type mice; 1 μg/mouse i.v., 2 and 18 hr)
1 | CCCCCCCCCCCCCC[C@@H](O)[C@@H](O)[C@H](CO[C@H]1O[C@H](CO)[C@H](O)[C@H](O)[C@H]1O)NC(=O)CCCCCCCCCCc1ccc(F)cc1 [Compound 7DW8-5, reference compound] | 36.2±5.0 | no induction | ~20 |  |  |  |  | 
2 | CC[C@@H](O)[C@@H](O)[C@H](CO[C@H]1OC(CO)[C@@H](O)C(O)C1O)NC(=O)Cc1ccc(F)cc1 (some centres unmarked) [Compound 7DW8-5-Glc] | 17.1±0.8 | no induction | ~20 | relatively high levels | very low levels | 1 | triggered the secretion | 
3 | CCCCCCCCCCCCCC[C@@H](O)[C@@H](O)[C@H](CO[C@H]1O[C@H](CO)[C@@H](O)[C@H](O)[C@@H]1O)NC(=O)CCCCCCCCCCc1ccc(F)cc1 [Compound 7DW8-5-Man] |  |  |  |  |  |  |  | failed to induce any cytokines/chemokines
